According to patent publication US20240174744A1, “METHODS OF TREATMENT USING PROTEIN BINDERS TO IRHOM2 EPITOPES” (SCIRHOM GMBH, priority 2021, published 2024):

system: DSS-induced colitis (IBD); assay: DSS-induced colitis (IBD) model in humanized NCG mice; type: in vivo, mouse; details: 25 mg/kg i.p. every two days, 8 mice per group
Description: In the following study, an in vivo model was performed to verify the inhibitory effects of the antibodies of the present disclosure on DSS-induced colitis (IBD) in a mouse model for acute IBD. The experiment was carried out with female NOD/Shi-scid/IL-2Rγ null immunodeficient mouse strain (NCG). Mice were humanized using hematopoietic stem cells (CD34+) isolated from human cord blood following TransCure bioServices's proprietary humanization protocol. Only mice with a humanization rate (hCD45/total CD45) above 25% were used.
On day 1, mice were randomized based on the humanization rate and cord blood donors, acute colitis was induced by adding 3% of DSS (Sigma Aldrich, France) in drinking water (MilliQ water provided ad libitum) during […] from D1 to D7 and renewed every 2 days (only for groups #2, #3, #4, #5 and #6). For the recovery period, after the DSS cycle, the DSS solution was removed and replaced by MilliQ water (washout period) during 5 days from day 8 to day 12. […]
Endoscopy score was determined at D5 and D10. […] The endoscope was rectally inserted, and photographs of the endoscopic procedure were recorded. […]
Colon damages were evaluated during the endoscopy using TransCure bioServices's murine endoscopic index of colitis severity (MEICS) that consists of colon thickening, changes of vascular pattern, visible fibrin, granularity of mucosal surface and stool consistency as scoring parameters. […]
All mice were clinically monitored during the whole study for unexpected signs of distress, changes in body weight and evolution of disease severity. These parameters were recorded daily and each mouse was assigned a global IBD score, consisting of body weight, diarrhea & stool consistency and bleeding. The latter two were assessed by visually monitoring stool and mouse hairs around the anus and tail. Moreover, the mortality was also recorded.

Substance	mice that survived the complete study period
Adalimumab	two out of 8
Infliximab: Infliximab (Merck Sharp & Dohme, USA), comparator group #3	two out of 8
Tocilizumab: Tocilizumab (Roche, Switzerland), comparator group #4	one out of 8
